Experimental data: patent publication US10351525B2, “Beta lactamase inhibitors” (Oxford University Innovation Limited, priority 2014, dated 2019)

Legend:
VIM-2 = biological target: T1, VIM-2 (Escherichia coli, UniProt Q5U7L7); test: MBL screening assay (IC50), VIM-2; assay type: biochemical
T1 construct: made in house; host or cells: Escherichia coli
Protocol: (§1) Recombinant forms of NDM-1, NDM-1 M67C, VIM-1, VIM-2, SPM-1, IMP-1 and BcII MBLs were produced in Escherichia coli as described in J. Med. Chem. 56, 6945-6953 (2013) and Makena et al Chem MechCHem 8, 1923-9 (2013). Purified VIM-2 protein was dialysed into fresh crystallization buffer (50 mM HEPES pH 7.5, 150 mM NaCl and […], concentrated to 7.5 mg/mL and used for crystallographic analyses.
(§2) Kinetic and inhibition analyses and UV-VIS studies^16 against bacterial MBLs were performed as described by Van Berkel et al in J. Med. Chem. 56, 6945-6953 (2013) and Makena et al Chem MechCHem 8, 1923-9 (2013).
(§3) The experiments were performed by using a NovaStar microplate reader (using path length correction) and were performed at r.t. (24-25° C.). All enzymes and substrates were dissolved in the assay buffer: 50 mM HEPES-NaOH buffer (pH 7.2) supplemented with 1 μg/mL BSA (to minimize the denaturation of the enzyme), 1 μM ZnSO4 and 0.01% Triton 100. Screening was carried out against a panel of MBLs including NDM-1, VIM-1, VIM-2, SPM-1 (Sao Paulo MBL-1) and IMP-1 and the non-clinically relevant model MBL Bacillus cereus (BcII).
The kinetic values determined were the means from at least three independent measurements. At least six different concentrations of the substrate or inhibitor were used to determinate the kinetic parameters (KM, kcat and IC50). Determination of the steady state kinetic parameters for the hydrolysis of different substrates (KM and kcat) was performed by fitting the initial velocity data to the Michaelis-Menten equation using the software package Graph Prism 5.01. The IC50 values were determined from the plot of activity (steady state rate) versus inhibitor concentration using the same software.
IC50 values (concentration required to affect 50% inhibition of enzyme activity) were determined by preincubation of the appropriate amount of enzyme with the desired compound in the assay buffer for 10 min at r.t. prior to the initiation of the assay by the addition of the substrate. The compounds for inhibition study were prepared in 1 to 100 mM DMSO stock solutions.

SPM-1 = SPM-1 (Pseudomonas aeruginosa, UniProt Q8G9Q0); test: MBL screening assay (IC50), SPM-1; assay type: biochemical
Protocol: as §1, §2, §3
The kinetic values determined were the means from at least three independent measurements. […] The IC50 values were determined from the plot of activity (steady state rate) versus inhibitor concentration using the same software. […]

hHAT = biological target: T2, hHAT (Homo sapiens, UniProt Q09472); test: Inhibition studies hHAT (HAT Assay Kit); assay type: biochemical; as to Inhibition verdict: key: N.I.—not inhibited
T2 construct: purchased Active Motif 56100
T2 sequence (Q09472 1284-1673 limits assumed): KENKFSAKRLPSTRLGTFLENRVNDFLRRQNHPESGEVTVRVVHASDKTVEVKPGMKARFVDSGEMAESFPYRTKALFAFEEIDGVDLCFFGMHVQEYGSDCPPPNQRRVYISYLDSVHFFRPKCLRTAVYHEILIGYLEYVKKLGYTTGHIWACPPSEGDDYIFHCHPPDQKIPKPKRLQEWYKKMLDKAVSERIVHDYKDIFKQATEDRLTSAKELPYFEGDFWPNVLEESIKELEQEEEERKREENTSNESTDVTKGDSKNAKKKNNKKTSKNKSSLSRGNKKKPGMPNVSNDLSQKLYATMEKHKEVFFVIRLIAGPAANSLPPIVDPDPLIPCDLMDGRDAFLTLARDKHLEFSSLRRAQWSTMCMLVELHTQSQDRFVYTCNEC
Protocol: (§4) To investigate the selectivity of ML302/ML302F for bacterial MBLs, activity was tested against TEM-1 (a Class A SBL), PBP-5 (penicillin-binding protein 5 or dacA) and PBP-6 (penicillin-binding protein 6, or dacC) from E. coli, hHAT (human histone acetyltransferase) and hHDAC (human histone deacetylase). TEM-1, PBP-5 and -6 and hHAT are known to be inhibited by rhodanines. Selectively against hACE-2 (Angiotensin converting enzyme 2) and hHAGH (Hydroxyacylglutathione hydrolase, human Glyoxylase II) was also tested.
(§5) The inhibition analyses for human histone acetyltransferases (HAT), HDAC hHDAC (human histone deacetylase), hACE-2 (Angiotensin converting enzyme 2) and hHAGH (Hydroxyacylglutathione hydrolase, human Glyoxylase II) were performed using the commercially available HAT Assay Kit (Active Motif, catalogue No. 56100 (2009)), hHDAC (Active Motif, catalogue No. 56200 (2013)), hACE-2 (ACE-2 (R&D Systems) and hHAGH ((R&D Systems).

hHDAC = test: Inhibition studies hHDAC; assay type: biochemical, human; as to Inhibition verdict: key: N.I.—not inhibited
Protocol: as §4, §5

hACE-2 = biological target: T3, hACE-2 (Homo sapiens, UniProt Q9BYF1); test: hACE 2 assay; assay type: biochemical; details: for remaining activity at 100 µM: read-out: RA (residual activity); as to Inhibition verdict: key: N.I.—not inhibited
T3 construct: purchased R&D Systems 933-ZN
Protocol: as §4, §5
hACE 2 Assay (R&D systems):
• Assay Buffer: 75 mM Tris, 1 M NaCl, pH 7.5 • Recombinant Human ACE-2 (rhACE-2) (Catalog #933-ZN) • Substrate: MCA-Tyr-Val-Ala-Asp-Ala-Pro-Lys(DNP)-OH (Catalog # ES007), 10 mM stock in DMSO • F16 Black Maxisorp Plate (Nunc, Catalog #475515) • Fluorescent Plate Reader (Model: SpectraMax Gemini EM by Molecular Devices) or equivalent Assay: 1. Dilute rhACE-2 to 0.2 ng/μL in Assay Buffer. 2. Dilute Substrate to 40 μM in Assay Buffer. 3. Load in a black well plate 50 μL of […], and start the reaction by adding 50 μL of 40 μM Substrate. As a control load […] Substrate with 50 μL of Assay Buffer. 4. Read at excitation and emission wavelengths of 320 nm and 405 nm (top read), respectively in kinetic mode for 5 minutes. 5.

| Compound | IC50 (VIM-2; IC50, VIM-2) [nM] | IC50 (VIM-2; IC50 value against VIM-2 obtained using this assay, VIM-2) [nM] | IC50 (SPM-1) [nM] | Inhibition verdict (hHAT) | RA (residual activity) (hHAT) [%] | Inhibition verdict (hHDAC) | RA (residual activity) (hHDAC) [%] | RA (residual activity) (hACE-2; 100 μM) | remaining activity at 100 µM (hACE-2; 100 μM) [%] | Inhibition verdict (hACE-2) |
| --- | --- | --- | --- | --- | --- | --- | --- | --- | --- | --- |
| CN1CCN(NC(=O)CN2C(=O)C(=Cc3c(Cl)ccc(Cl)c3Cl)SC2=S)CC1 (mixture of isomers) [ML302, N-(4-Methylpiperazin-1-yl)-2-(4-oxo-2-thioxo-5-(2,3,6-trichlorobenzylidene)thiazolidin-3-yl)acetamide] | 490 ± 180 | 498 ± 18 | 1320 ± 620 | N.I. | 93 ± 15 | N.I. | 108 ± 3 | 73 ± 9 ^ % | ~75 | – |
| O=C(O)C(S)=Cc1c(Cl)ccc(Cl)c1Cl (racemic) [ML302F, 2-Mercapto-3-(2,3,6-trichlorophenyl)acrylic acid] | 300 ± 90 | – | 1760 ± 510 | N.I. | 85 ± 9 | N.I. | 116 ± 7 | – | 99 ± 4 | N.I. |
